Literature values in US20180055969A1, “BIPHASIC CERAMIC BONE SUBSTITUTE” (BONE SUPPORT AB, priority 2015, published 2018).

System: bone resorption
Settings: for potency relative to etidronate: value in parenthesis, etidronate as reference; for potency compared with etidronate: times as potent as etidronate

SMILES	potency relative to etidronate	potency compared with etidronate
NCCC(O)(P(=O)(O)O)P(=O)(O)O [pamidronate]	100	
O=P(O)(O)C(Sc1ccc(Cl)cc1)P(=O)(O)O [tiludronate]		10 times
NCCCC(O)(P(=O)(O)O)P(=O)(O)O [alendronate]	500	10-100 times
O=P(O)(O)C(Cl)(Cl)P(=O)(O)O [Clodronate, clodronate]		10 times
CCCCCN(C)CCC(O)(P(=O)(O)O)P(=O)(O)O [ibandronate]	1000	
O=P(O)(O)C(O)(Cn1ccnc1)P(=O)(O)O [zoledronate]	10000	up to 10.000 times
NCCCCCC(O)(P(=O)(O)O)P(=O)(O)O [neridronate]	100	
O=P(O)(O)C(O)(Cc1cccnc1)P(=O)(O)O [risedronate]	2000	
CN(C)CCC(O)(P(=O)(O)O)P(=O)(O)O [olpadronate]	500	
